Earlier results as cited in article PMC2866165 (Nuclear medicine and biology, 2010).
pIC50: −log10 of the molar value.

What was measured:
PDE3A = conditions: read-out: IC50 for PDE3A
PDE4D = conditions: read-out: IC50 for PDE4D

For COc1ccc(Cc2nccc3cc(OC)c(OC)cc23)cc1OC [Papaverine, 1-(3,4-dimethoxybenzyl)-6,7-dimethoxyisoquinoline], the pIC50 (PDE3A) is listed as 5.89, the pIC50 (PDE4D) is listed as 6.49 and the “Biological half-life in rat plasma” value is listed as 15 min.
